Data: patent US7563787B2, “Substituted pyrazole compounds” (Miikana Therapeutics, Inc., priority 2005, dated 2009)

Experiments:
Format in all cases: biochemical
[1] = molecular target: T1, LCK (Homo sapiens, UniProt P06239); test: Kinase Selectivity Assay; settings: read-out: Percent Inhibition at 1 μM; further: ATP at apparent Km or 100 µM
T1 construct: full-length enzymes or catalytically active fragments; purchased Invitrogen
Procedure: (§1) Compounds were assayed for inhibitory activity against a panel of different kinase enzymes at a concentration of 1 μM. Where appropriate, full-length enzymes or catalytically active fragments, with N-terminal or C-terminal His- or GST-tags, were used (Invitrogen, Carlsbad, Calif.). Test compounds were initially diluted to 100× test concentration in 100% DMSO. This 100× concentration was then diluted to a 4× working concentration in Kinase Buffer (50 mM HEPES pH 7.5, 0.01% Brij-35, 10 mM MgCl2, 1 mM EGTA) and 2.5 μL was then added to a low volume NBS, 384-well plate (Corning, Corning, N.Y.). Five μL of a 2× peptide/kinase mixture (Invitrogen, Carlsbad, Calif.), as appropriate (listed in Table 3), was then added and the reaction was then initiated by addition of 2.5 μL of a 4× working concentration of ATP in Kinase Buffer.

[2] = molecular target: T2, PTK2 (FAK) (Homo sapiens, UniProt Q05397); test: Kinase Selectivity Assay; settings: read-out: Percent Inhibition at 1 μM; further: ATP at apparent Km or 100 µM
T2 construct: full-length enzymes or catalytically active fragments; purchased Invitrogen
Procedure: as §1

[3] = molecular target: T3, ABL1 T315I (Homo sapiens, UniProt P00519, T315I); test: Kinase Selectivity Assay; settings: read-out: Percent Inhibition at 1 μM; further: ATP at apparent Km or 100 µM
T3 construct: purchased Invitrogen, Carlsbad, Calif
Procedure: as §1

[4] = molecular target: T4, SYK (Homo sapiens, UniProt P43405); test: Kinase Selectivity Assay; settings: read-out: Percent Inhibition at 1 μM
T4 construct: purchased Invitrogen, Carlsbad, Calif
Procedure: as §1

[5] = molecular target: T5, ABL1 E255K (Homo sapiens, UniProt P00519, E255K); test: Kinase Selectivity Assay; settings: read-out: Percent Inhibition at 1 μM
T5 construct: purchased Invitrogen, Carlsbad, Calif
Procedure: as §1

[6] = molecular target: T6, ABL1 (Homo sapiens, UniProt P00519); test: Kinase Selectivity Assay; settings: read-out: Percent Inhibition at 1 μM; further: ATP at apparent Km or 100 µM
T6 construct: purchased Invitrogen, Carlsbad, Calif
Procedure: as §1

[7] = molecular target: T7, ABL1 G250E (Homo sapiens, UniProt P00519, G250E); test: Kinase Selectivity Assay; settings: read-out: Percent Inhibition at 1 μM; further: ATP at apparent Km or 100 µM
T7 construct: purchased Invitrogen, Carlsbad, Calif
Procedure: as §1

[8] = molecular target: T8, FGFR1 (Homo sapiens, UniProt P11362); test: Kinase Selectivity Assay; settings: read-out: Percent Inhibition at 1 μM; further: ATP at apparent Km or 100 µM
T8 construct: purchased Invitrogen, Carlsbad, Calif
Procedure: as §1

[9] = molecular target: T9, recombinant human Flt3, residues 564-end (Homo sapiens, UniProt P36888); test: Flt3 Kinase Inhibition Assay; settings: read-out: inhibition of Flt3 at a concentration of 1 μM; 1 μM compound; 33P-ATP filter assay
T9 construct: recombinant human Flt3, residues 564-end; GST (N); purchased Upstate USA Inc, Charlottesville, Va
Procedure: Compounds were assayed for Flt3 kinase inhibitory activity using N-terminal GST-tagged recombinant human Flt3, residues 564-end (Upstate USA Inc, 706 Forest Street, Charlottesville, Va.). Serial dilutions of compound were assayed in a final reaction volume of 25 μL by incubating a solution of the above Flt3 kinase (5-10 mU), 8 mM MOPS (3-(N-morpholino) propanesulfonic acid) pH 7.0, 0.2 mM EDTA (ethylenediamine tetracetic acid), 50 μM amino acid sequence [sequence] (SEQ ID NO: 1)(Upstate USA Inc, 706 Forest Street, Charlottesville, Va.), and 10 mM magnesium acetate and [γ-^33P-ATP] (specific activity of about 500 cpm/pmol, concentration as required). The reaction was initiated by the addition of the magnesium acetate and [γ-^33P-ATP] mixture. After incubation for 40 minutes at room temperature, the reaction was stopped bythe addition of 5 μL of a 3% phosphoric acid solution. A 10 μL aliquote of the reaction was then spotted onto a P30 filtermat (PerkinElmer, Wellesley, Mass.) and washed three times for five minutes in 75 mM phosphoric acid and once in methanol prior to drying and scintillation counting. Inhibition of Flt3 activity was determined by comparison to assays that contained no inhibitor.

[10] = molecular target: T10, recombinant human KDR, residues 790-end (Homo sapiens, UniProt P35968); test: KDR Kinase Inhibition Assay; settings: read-out: inhibition of KDR at a concentration of 1 μM
T10 construct: recombinant human KDR, residues 790-end; His6 (N); purchased Upstate USA Inc, Charlottesville, Va
T10 sequence (P35968 790-1356 limits assumed): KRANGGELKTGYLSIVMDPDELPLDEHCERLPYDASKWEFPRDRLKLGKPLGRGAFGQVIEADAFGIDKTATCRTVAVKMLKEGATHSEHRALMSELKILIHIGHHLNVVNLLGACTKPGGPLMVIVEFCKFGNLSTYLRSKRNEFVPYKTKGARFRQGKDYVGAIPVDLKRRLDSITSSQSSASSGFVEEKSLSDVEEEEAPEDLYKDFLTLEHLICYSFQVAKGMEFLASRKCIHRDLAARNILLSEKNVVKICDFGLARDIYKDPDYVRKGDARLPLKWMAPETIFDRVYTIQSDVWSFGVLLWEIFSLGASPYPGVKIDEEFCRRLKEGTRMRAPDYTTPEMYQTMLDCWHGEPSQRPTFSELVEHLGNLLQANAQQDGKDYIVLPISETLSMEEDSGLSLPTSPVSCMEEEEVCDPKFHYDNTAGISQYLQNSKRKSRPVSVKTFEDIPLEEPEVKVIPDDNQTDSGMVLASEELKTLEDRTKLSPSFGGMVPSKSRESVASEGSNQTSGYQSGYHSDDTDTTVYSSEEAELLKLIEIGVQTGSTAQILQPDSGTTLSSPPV
Procedure: Compounds were assayed for KDR kinase inhibitory activity using N-terminal His6-tagged recombinant human KDR, residues 790-end (Upstate USA Inc, 706 Forest Street, Charlottesville, Va.). Serial dilutions of compound were assayed in a final reaction volume of 25 μL by incubating a solution of the above KDR kinase (5-10 mU), 8 mM MOPS (3-(N-morpholino) propanesulfonic acid) pH 7.0, 0.2 mM EDTA (ethylenediamine tetracetic acid), 0.33 mg/mL myelin basic protein (Upstate USA Inc, 706 Forest Street, Charlottesville, Virginia), and 10 mM magnesium acetate and [γ-^33P-ATP] (specific activity of about 500 cpm/pmol, concentration as required). The reaction was initiated by the addition of the magnesium acetate and [γ-^33P-ATP] mixture. After incubation for 40 minutes at room temperature, the reaction was stopped by the addition of 5 μL of a 3% phosphoric acid solution. A 10 μL aliquote of the reaction was then spotted onto a P30 filtermat (PerkinElmer, Wellesley, Mass.) and washed three times for five minutes in 75 mM phosphoric acid and once in methanol prior to drying and scintillation counting. Inhibition of KDR activity was determined by comparison to assays that contained no inhibitor.

T8 sequence (P11362 22-822): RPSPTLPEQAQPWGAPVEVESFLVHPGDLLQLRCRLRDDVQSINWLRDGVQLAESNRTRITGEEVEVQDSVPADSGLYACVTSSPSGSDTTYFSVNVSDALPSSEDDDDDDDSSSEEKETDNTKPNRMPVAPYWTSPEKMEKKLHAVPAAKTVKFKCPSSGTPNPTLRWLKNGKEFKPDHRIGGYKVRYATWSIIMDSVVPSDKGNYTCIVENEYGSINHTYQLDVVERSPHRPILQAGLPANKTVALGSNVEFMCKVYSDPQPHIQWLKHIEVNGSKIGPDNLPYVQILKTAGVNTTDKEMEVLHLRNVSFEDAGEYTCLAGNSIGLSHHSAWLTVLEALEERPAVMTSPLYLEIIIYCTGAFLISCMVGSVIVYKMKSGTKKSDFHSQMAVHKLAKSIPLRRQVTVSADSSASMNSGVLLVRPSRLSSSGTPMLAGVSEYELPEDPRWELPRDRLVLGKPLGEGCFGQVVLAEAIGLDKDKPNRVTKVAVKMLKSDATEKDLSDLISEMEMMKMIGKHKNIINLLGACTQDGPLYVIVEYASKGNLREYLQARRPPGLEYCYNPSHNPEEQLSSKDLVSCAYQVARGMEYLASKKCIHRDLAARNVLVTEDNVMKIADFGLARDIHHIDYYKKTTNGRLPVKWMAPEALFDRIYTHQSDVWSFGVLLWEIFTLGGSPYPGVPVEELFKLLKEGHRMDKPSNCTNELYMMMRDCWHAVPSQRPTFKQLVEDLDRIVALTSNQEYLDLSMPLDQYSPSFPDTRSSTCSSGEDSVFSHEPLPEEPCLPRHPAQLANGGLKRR
T2 sequence (Q05397 whole entry, the tested form may be a part): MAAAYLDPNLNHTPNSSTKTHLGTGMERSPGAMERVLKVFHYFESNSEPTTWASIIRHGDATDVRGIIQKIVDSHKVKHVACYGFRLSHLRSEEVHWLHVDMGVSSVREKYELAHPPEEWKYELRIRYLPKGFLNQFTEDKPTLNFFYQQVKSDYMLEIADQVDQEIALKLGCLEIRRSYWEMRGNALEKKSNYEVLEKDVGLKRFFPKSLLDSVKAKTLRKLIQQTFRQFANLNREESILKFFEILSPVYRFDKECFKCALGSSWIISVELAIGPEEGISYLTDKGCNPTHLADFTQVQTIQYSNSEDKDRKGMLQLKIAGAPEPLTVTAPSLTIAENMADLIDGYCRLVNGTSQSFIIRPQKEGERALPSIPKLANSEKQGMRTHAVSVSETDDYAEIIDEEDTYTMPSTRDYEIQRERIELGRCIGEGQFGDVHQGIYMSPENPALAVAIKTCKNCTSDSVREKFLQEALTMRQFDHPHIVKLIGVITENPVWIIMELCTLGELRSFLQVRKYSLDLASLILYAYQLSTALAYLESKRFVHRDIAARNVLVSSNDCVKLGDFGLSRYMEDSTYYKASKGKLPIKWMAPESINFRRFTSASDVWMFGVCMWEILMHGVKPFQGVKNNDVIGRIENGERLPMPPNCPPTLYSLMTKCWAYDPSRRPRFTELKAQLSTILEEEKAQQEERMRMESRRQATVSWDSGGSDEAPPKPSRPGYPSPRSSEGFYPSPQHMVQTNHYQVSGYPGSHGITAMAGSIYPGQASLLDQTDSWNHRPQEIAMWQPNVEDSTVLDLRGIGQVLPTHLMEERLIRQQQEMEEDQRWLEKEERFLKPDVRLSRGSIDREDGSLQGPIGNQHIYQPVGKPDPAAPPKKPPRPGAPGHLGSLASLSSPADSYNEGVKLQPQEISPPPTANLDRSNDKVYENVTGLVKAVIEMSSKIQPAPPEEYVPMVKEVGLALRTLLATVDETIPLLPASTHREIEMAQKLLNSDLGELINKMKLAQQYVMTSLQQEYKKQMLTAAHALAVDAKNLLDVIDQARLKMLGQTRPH
T9 sequence (P36888 564-993 limits assumed): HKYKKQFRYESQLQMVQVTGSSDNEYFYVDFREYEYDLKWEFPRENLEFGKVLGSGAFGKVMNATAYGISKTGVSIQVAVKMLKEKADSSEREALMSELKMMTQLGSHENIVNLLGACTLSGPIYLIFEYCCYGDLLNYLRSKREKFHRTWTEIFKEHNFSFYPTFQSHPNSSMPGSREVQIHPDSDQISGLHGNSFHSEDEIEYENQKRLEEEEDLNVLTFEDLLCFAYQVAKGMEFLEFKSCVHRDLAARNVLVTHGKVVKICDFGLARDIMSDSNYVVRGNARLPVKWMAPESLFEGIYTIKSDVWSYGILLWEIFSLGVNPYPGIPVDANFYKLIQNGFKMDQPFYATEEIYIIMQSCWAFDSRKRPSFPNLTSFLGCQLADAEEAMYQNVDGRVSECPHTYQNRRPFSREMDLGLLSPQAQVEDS
T1 sequence (P06239 whole entry, the tested form may be a part): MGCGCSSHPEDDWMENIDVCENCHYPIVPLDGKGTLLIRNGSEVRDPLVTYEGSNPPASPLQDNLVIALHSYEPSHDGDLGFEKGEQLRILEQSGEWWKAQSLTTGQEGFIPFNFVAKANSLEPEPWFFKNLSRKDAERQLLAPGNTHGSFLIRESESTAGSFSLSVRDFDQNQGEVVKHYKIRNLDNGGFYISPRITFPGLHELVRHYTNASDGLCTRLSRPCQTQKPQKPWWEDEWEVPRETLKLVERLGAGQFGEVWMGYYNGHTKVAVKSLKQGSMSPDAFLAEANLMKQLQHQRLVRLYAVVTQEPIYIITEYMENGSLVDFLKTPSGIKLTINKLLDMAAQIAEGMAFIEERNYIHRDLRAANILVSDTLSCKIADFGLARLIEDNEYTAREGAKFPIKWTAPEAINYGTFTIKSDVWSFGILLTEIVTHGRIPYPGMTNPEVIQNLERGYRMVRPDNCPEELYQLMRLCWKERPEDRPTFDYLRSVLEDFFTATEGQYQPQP

Row | inhibition at 1 µM [1] [%] | inhibition at 1 µM [2] [%] | inhibition at 1 µM [3] [%] | inhibition at 1 µM [4] [%] | inhibition at 1 µM [5] [%] | inhibition at 1 µM [6] [%] | inhibition at 1 µM [7] [%] | inhibition at 1 µM [8] [%] | Compound | inhibition at 1 µM [9] [%] | inhibition at 1 µM [10] [%]
1 | 81 | 81 | 79 | 88 | 53 | 54 | 60 | 46 | Cc1cc(Nc2nc(/C=C/c3ccccc3)nc(N3CCN(C)CC3)c2N)[nH]n1 [Example 10, 6-(4-methylpiperazin-1-yl)-N-(3-methyl-1H-pyrazol-5-yl)-2-[(E)-2-phenylvinyl]pyrimidin-4,5-diamine] | – | –
2 | – | – | – | – | – | – | – | – | Cc1cc(Nc2cc(N3CCN(C)CC3)nc(/C=C/c3ccccc3)n2)n[nH]1 [Example 31, 6-(4-methylpiperazin-1-yl)-N-(3-methyl-1H-pyrazol-5-yl)-2-[(E)-2-phenylvinyl]pyrimidin-4-amine] | ~96 | ~94
